Each compound was assayed on primary human endothelial cells expressing luciferase under the control of the KLF2 promoter (assay: KLF2 Induction Cell Based Bioassay (luciferase reporter)). Details: Bioactivity of stereoisomers: S isomer.
Source text: In endothelial cell culture media, a stock of the highest working concentration was made at no more than 1% DMSO vehicle. The working stock was then serially diluted 1:2 to make an 11-point concentration response curve. Included in the 96-well plate were 2 reference compounds with known potencies. A DMSO column was included in the 96-well plate at the highest percent vehicle of the working stocks. The 96-well cell culture plate of primary human endothelial cells expressing luciferase under the control of the KLF2 promoter was dosed with 200 μL per well of the dilution series as well as the DMSO control column. The assay plate was incubated at 37° C. for 24 hours. The supernatant was collected at 24 hours.
20 μL of the supernatant was then placed in a 384-well plate with optical duplicates. The corners of the plate received 20 μL of the Gaussia Luciferase Enzyme positive control, as well as 20 μL of the 50 μM Coelenterizine substrate. The plate read is then calibrated using the control, and read using a Molecular Devices SpectraMax iD5, providing luminescence in relative light units (RLU). The plate reader injected 20 μL of the 50 μM Coelenterizine substrate immediately before taking the RLU measurement for each well.
The sample signals were then normalized to the average signal of the DMSO column, as well as to the maximum signal of one of the reference compounds, as shown in the equations below: […]
The EC50 of each compound is then defined as when the concentration response curve passes 0.5.
With `COCCN1C(=O)c2oc3cc(C(=O)NC4(C)COC4)ccc3c2OC[C@@]1(C)C(=O)NCc1c(F)cccc1OC` [Example 135] the “Bioactivity Bucket, S” value was “inactive”.
For `C#CCCN1C(=O)c2oc3ccccc3c2OC[C@@]1(C)C(=O)NCc1ccccc1OC` [Example 138], the “Bioactivity Bucket, S” value was “inactive”.

Same assay, conditions: Homo sapiens, Endothelial cell, 24 h, KLF2 promoter luciferase, 24 hours, 11-point concentration response; read-out: Activity Range (EC50)
For `COc1ccc(F)c(F)c1CNC(=O)C1(C)COc2c(oc3cc(C(=O)NC4CCC4)ccc23)C(=O)N1[C@H]1C[C@@H](OC)C1` (some centres unmarked) [Example 82], the EC50 was 51 to 500 nM.
In the case of `COc1cccnc1CNC(=O)C1(C)COc2c(oc3cc(C(=O)NC4(C)COC4)ccc23)C(=O)N1[C@H]1C[C@@H](OC)C1` (some centres unmarked) [Example 78], the EC50 is reported as 51 to 500 nM.
`COCCN1C(=O)c2oc3ccccc3c2OCC1(C)C(=O)NCc1cc2ncccc2cc1OC` (centres unmarked) [Example 18] showed an EC50 of 501 to 5000 nM.
In the case of `COCCN1C(=O)c2oc3ccccc3c2OCC1(C)C(=O)NCc1c(OC)ccc(F)c1Cl` (centres unmarked) [Example 17], the EC50 is reported as 501 to 5000 nM.
With `COc1cccnc1CNC(=O)[C@@]1(C)COc2c(oc3ccc(Cl)cc23)C(=O)N1CC(=O)N1CC(O)C1` [Example 104] the EC50 was 51 to 500 nM.
`COCCN1C(=O)c2oc3cc(C(=O)NC4CCC4)ccc3c2OC[C@]1(C)C(=O)NCc1ccccc1OC` [Example 50, (R)—N8-cyclobutyl-N3-(2-methoxybenzyl)-4-(2-methoxyethyl)-3-methyl-5-oxo-2,3,4,5-tetrahydrobenzofuro[2,3-f][1,4]oxazepine-3,8-dicarboxamide] was tested, and the EC50 was 51 to 500 nM.
`COc1cc(F)ccc1CNC(=O)C1(C)COc2c(oc3cc(C(=O)NC4(C)COC4)ccc23)C(=O)N1[C@H]1C[C@@H](OC)C1` (some centres unmarked) [Example 69] showed an EC50 of 51 to 500 nM.
`COc1cccc(F)c1CNC(=O)C1(C)COc2c(oc3ccc(F)cc23)C(=O)N1CC(=O)N(C)CCO` (centres unmarked) [Example 111, 9-fluoro-N-(2-fluoro-6-methoxybenzyl)-4-(2-((2-hydroxyethyl)(methyl)amino)-2-oxoethyl)-3-methyl-5-oxo-2,3,4,5-tetrahydrobenzofuro[2,3-f][1,4]oxazepine-3-carboxamide] was tested, and the EC50 was 51 to 500 nM.
Compound `COCCN1C(=O)c2oc3cc(-c4cscn4)ccc3c2OCC1(C)C(=O)NCc1ccccc1OC` (centres unmarked) [Example 99] has an EC50 of 501 to 5000 nM.
`COCCN1C(=O)c2oc3cc(C(=O)NC4(C)COC4)ccc3c2OCC1(C)C(=O)NCc1cc(F)ccc1OC` (centres unmarked) [Example 74] was tested, and the EC50 was 501 to 5000 nM.
`COCCN1C(=O)c2oc3ccccc3c2OCC1(C)C(=O)NCc1c(OC)ccc2cccnc12` (centres unmarked) [Example 20] was tested, and the EC50 was 501 to 5000 nM.
Work on `COCCN1C(=O)c2oc3ccccc3c2OCC1(C)C(=O)NCc1c(OC)cccc1C(N)=O` (centres unmarked) [Example 26] yielded an EC50 of 501 to 5000 nM.
`COc1cccc(F)c1CNC(=O)C1(C)COc2c(oc3cc(C(=O)NC4(C)COC4)ccc23)C(=O)N1CC1CC1` (centres unmarked) [Example 89] gave an EC50 of at most 50 nM.
`COCCN1C(=O)c2oc3cc(C(=O)NC4(C)COC4)ccc3c2OC[C@]1(C)C(=O)NCc1c(F)cccc1OC` [Example 79] was tested, and the EC50 was 51 to 500 nM.
`COCCN1C(=O)c2oc3cc(C(=O)NC4CCC4)ccc3c2OCC1(C)C(=O)NCc1c(OC)ccc(F)c1F` (centres unmarked) [Example 61] showed an EC50 of 51 to 500 nM.
`COCCN1C(=O)c2oc3cc(C(=O)NC4CCC4)ccc3c2OC[C@]1(C)C(=O)NCc1c(F)cccc1OC` [Example 94] showed an EC50 of at most 50 nM.
`COc1ccccc1CNC(=O)C1(C)COc2c(oc3ccccc23)C(=O)N1CC1(OC)CCC1` (centres unmarked) [Example 10] gave an EC50 of 501 to 5000 nM.
`COc1ccc(F)c(F)c1CNC(=O)C1(C)COc2c(oc3cc(C(=O)NC4(C)COC4)ccc23)C(=O)N1[C@H]1C[C@@H](OC)C1` (some centres unmarked) [Example 83] showed an EC50 of 51 to 500 nM.
`COCCN1C(=O)c2oc3cc(C(=O)NC4(C)COC4)ccc3c2OCC1(C)C(=O)NCc1c(F)cccc1OC` (racemic) [Example 81] was tested, and the EC50 was 51 to 500 nM.
`COCCN1C(=O)c2oc3ccccc3c2OCC1(C)C(=O)NCc1c(OC)cccc1C(=O)OC` (centres unmarked) [Example 27] gave an EC50 of 501 to 5000 nM.
In the case of `COCCN1C(=O)c2oc3cc(C(=O)NC4(C)COC4)ccc3c2OCC1(C)C(=O)NCc1ccc(F)cc1OC` (centres unmarked) [Example 76], the EC50 is reported as 51 to 500 nM.
In the case of `COc1cccc(F)c1CNC(=O)C1(C)COc2c(oc3cc(C(=O)NC4CCC4)ccc23)C(=O)N1CC1CC1` (centres unmarked) [Example 93], the EC50 is reported as at most 50 nM.
`COc1cccc(Cl)c1CNC(=O)C1(C)COc2c(oc3cc(C(=O)NC4(C)COC4)ccc23)C(=O)N1CC1CC1` (centres unmarked) [Example 86] was tested, and the EC50 was at most 50 nM.
`COc1cccnc1CNC(=O)[C@@]1(C)COc2c(oc3cc(-c4nc(C#N)co4)ccc23)C(=O)N1CC(=O)N(C)C` [Example 129, (R)-8-(4-cyanooxazol-2-yl)-4-(2-(dimethylamino)-2-oxoethyl)-N-((3-methoxypyridin-2-yl)methyl)-3-methyl-5-oxo-2,3,4,5-tetrahydrobenzofuro[2,3-f][1,4]oxazepine-3-carboxamide] was tested, and the EC50 was at most 50 nM.
With `COc1cccnc1CNC(=O)C1(C)COc2c(oc3cc(C(=O)NC4CCC4)ccc23)C(=O)N1CC1CC1` (centres unmarked) [Example 53] the EC50 was 51 to 500 nM.
Compound `COCCN1C(=O)c2oc3ccccc3c2OCC1(C)C(=O)NCc1c(OC)ccc(F)c1F` (centres unmarked) [Example 21] has an EC50 of 501 to 5000 nM.
`COc1ccc(F)cc1CNC(=O)[C@@]1(C)COc2c(oc3ccc(F)cc23)C(=O)N1Cc1nnn(CCO)n1` [Example 119] showed an EC50 of 51 to 500 nM.
For `COCCN1C(=O)c2oc3ccccc3c2OCC1(C)C(=O)NCc1cc(C)ccc1OC` (centres unmarked) [Example 34], the EC50 was 501 to 5000 nM.
In the case of `C=CCN1C(=O)c2oc3ccccc3c2OCC1(C)C(=O)NCc1ccccc1OC` (centres unmarked) [Example 12], the EC50 is reported as 501 to 5000 nM.

Same assay, conditions: Homo sapiens, Endothelial cell, Bioactivity of stereoisomers: R isomer; read-out: Bioactivity Bucket, R
`COCCN1C(=O)c2oc3cc(C(=O)NC4CCC4)ccc3c2OC[C@]1(C)C(=O)NCc1ccccc1OC` [Example 50, (R)—N8-cyclobutyl-N3-(2-methoxybenzyl)-4-(2-methoxyethyl)-3-methyl-5-oxo-2,3,4,5-tetrahydrobenzofuro[2,3-f][1,4]oxazepine-3,8-dicarboxamide] showed an EC50 of at most 50 nM.
For `COCCN1C(=O)c2oc3cc(C(=O)NC4(C)COC4)ccc3c2OC[C@]1(C)C(=O)NCc1c(F)cccc1OC` [Example 79], the EC50 was 51 to 500 nM.
`COc1cccnc1CNC(=O)[C@@]1(C)COc2c(oc3cc(-c4nc(C#N)co4)ccc23)C(=O)N1CC(=O)N(C)C` [Example 129, (R)-8-(4-cyanooxazol-2-yl)-4-(2-(dimethylamino)-2-oxoethyl)-N-((3-methoxypyridin-2-yl)methyl)-3-methyl-5-oxo-2,3,4,5-tetrahydrobenzofuro[2,3-f][1,4]oxazepine-3-carboxamide] gave an EC50 of at most 50 nM.

Same assay, conditions: Homo sapiens, Endothelial cell, Bioactivity of stereoisomers: racemate; read-out: Bioactivity Bucket, Racemate
In the case of `COCCN1C(=O)c2oc3cc(C(=O)NC4(C)COC4)ccc3c2OCC1(C)C(=O)NCc1c(F)cccc1OC` (racemic) [Example 81], the EC50 is reported as 51 to 500 nM.

— patent US20250171460A1, “INDUCERS OF KLF2 AND METHODS OF USE THEREOF” (Riparian Pharmaceuticals, Inc., priority 2022, published 2025)
